Data reported in US5545640A, “Protease inhibiting succinic acid derivatives” (Bio-Mega/Boehringer Ingeleheim Research Inc., priority 1995, dated 1996).

How the values were obtained:
HIV protease = biological target: T1, HIV protease (Human immunodeficiency virus type 1 group M subtype B, UniProt P04585); experiment: biochemical; conditions: recombinant HIV protease; decapeptide substrate; HPLC assay; read-out: IC50 (concentration causing 50% inhibition of HIV protease)
T1 construct: an HIV-encoded enzyme known as HIV protease
From the text: The procedure is based on the capacity of the test compound to inhibit enzymatic cleavage by HIV protease of a decapeptide (the substrate) having an amino acid sequence which includes a known HIV protease cleavage site of a HIV polyprotein; see H. G. Krausslich et al., Proc. Natl. Acad. Sci. USA, 86, 807 (1989).
Anderson, S. Rakhit and C. Yoakim in the European patent application 443 560, published Aug. 28, 1991.

[1] = test system: HIV (H9/HTLV-IIIB stock) in C8166 cells; experiment: Cell culture assay: inhibition of syncytia formation in HIV-infected C8166 cells (antiviral, anti-HIV effect); type: cell-based, HIV (HTLV-IIIB); human T4 cell line; conditions: Human immunodeficiency virus 1; C8166 cells; H9/HTLV-IIIB, 50 times TCID50; 72 h, 37°; read-out: EC50 (concentration causing 50% inhibition of syncytia formation)
From the text: Typical of such procedures are those described by S. Harada and N. Yamamoto, Jpn. J. Cancer Res. (Gann), 76, 432 (1985), and S. Harada et al., Science, 229, 563 (1985). An assay based on the latter procedures is described in the examples hereinafter.
In addition, Tables 1 to 8 list the results for exemplified compounds of formula 1 when assayed for antiviral (anti-HIV) effects according to the following protocol which is based on a cell culture assay previously described by Harada et al., supra. Transformed cells are used because of the rapidity with which HIV will replicate in the cells.
1. The test compound is dissolved in dimethylsulfoxide to a concentration of 5 mg/mL. The resultant solution .can be stored at 4° until use.
2. The resultant solution is diluted in RPMI 1640 (Gibco Laboratories, St. Lawrence, Mass., USA) to four times (4×) the final concentration which is to be tested. Once diluted in RPMI 1640, the solution is used in the cell culture assay within 4 h.
3. The latter solution (50 μL) is added to triplicate wells of a 96 well flat bottomed microtiter plate. RPMI (50 μL) also is added to control wells.
4. C8166 cells (5×10^4) in 50 μL of HEPES-buffered RPMI 1640 (pH=7.2), 10% heat inactivated fetal calf serum (FCS), […] gentamicin (complete media) are added to all wells.
5. Fifty times TCID50 of H9/HTLV-IIIB stock (stored in liquid nitrogen as cell culture supernatant in 50% FCS) in 100 μL of complete media is added to all wells. The infectious titer of the virus stocks is as previously determined by end point dilution on C8166 cells. The titer of stocks are stable for 6-12 months when stored at -193°.
6. Microtiter plates are then placed on level shelves of a 37°, 5% CO2 humidified incubator for 72 h.
7. Plates are then removed and centers of syncytia are counted in each well by low power phase contrast light microscopy. […] Control wells should have between 25 and 75 centers of syncytia per well.
8. Percent inhibition of syncytia formation is calculated by the formula: [formula]
The concentration of the test compound which causes a 50% inhibition of syncytia formation, i.e. the EC50, is determined by using the technique of serial dilution of the working solution at step 3 and graphically plotting the observed percent inhibition of syncytia formation against the various concentrations of the test compound.
In the following tables, assay results are listed for the exemplified compounds from the aforementioned recombinant HIV protease HPLC assay under the heading IC50 (nM) and from the cell culture assay under the heading EC50 (nM). Note that for some of the compounds listed in tables, the EC50 's have not been determined (ND).

Row | SMILES | IC50 (HIV protease) | EC50 [1]
1 | CCC(CC)NC(=O)C[C@@H](C(=O)NC[C@@H](O)[C@H](Cc1ccccc1)NC(=O)COc1c(C)cccc1C)C(C)(C)C [Entry 71, N^1-(1-Ethylpropyl)-N^4 -{3(S)-{{(2,6-dimethylphenoxy)acetyl}amino}-2(R)-hydroxy-4-phenylbutyl}-3(R)-tert-butylbutanediamide] | 3.5 nM | 645 nM
2 | Cc1cccc(C)c1NC(=O)C[C@@H](C(=O)NC[C@@H](O)[C@H](Cc1ccccc1)NC(=O)OCc1ccccc1)C(C)(C)C [Entry 72] | 3 nM | 360 nM
3 | Cc1cccc(C)c1NC(=O)C[C@@H](C(=O)NC[C@@H](O)[C@H](Cc1ccccc1)NC(=O)COc1c(C)cccc1C)C(C)(C)C [Entry 73] | 2.6 nM | 620 nM
4 | Cc1ccc(C)c(C(=O)N[C@@H](Cc2ccccc2)[C@H](O)CNC(=O)[C@H](CC(=O)Nc2c(C)cccc2C)C(C)(C)C)c1 [Entry 74] | 2 nM | 370 nM
